Converted amounts (≈) assume the structure as drawn. Read-outs that look alike come from different tables or passages of the source.
Assays:
[1] = target: T1, epidermal growth factor receptor kinase (Homo sapiens, UniProt P00533); test: Inhibition of Epidermal Growth Factor Receptor Kinase (EGF-R) using recombinant enzyme; type: biochemical; details: averages of the individual determinations
T1 construct: containing the EGFR cDNA encoding amino acids 645 - 1186 preceded by Met-Ala-(His)6; made in house; host or cells: Sf9 insect cells, recombinant baculovirus vHcEGFR52

Mek and Erk = Mek and Erk (Homo sapiens, UniProt P28482+Q02750); test: Mitogen Activated Protein Kinase (MAPK) coupled assay (Mek-Erk); type: biochemical
Experimental: Mitogen Activated Protein Kinase (MAPK) Assay
To evaluate inhibitors of the MAP (mitogen activated protein) kinase a two component coupled standard pharmacological test procedure, which measures phosphorylation of a serine/threonine residue in an appropriate sequence in the substrate in the presence and absence of a putative inhibitor, was used. Recombinant human MEK 1 (MAPKK) was first used to activate recombinant human ERK2 (MAPK) and the activated MAPK (ERK) was incubated with substrate (MBP peptide or MYC peptide) in the presence of ATP, Mg^+2 and radiolabeled ^33P ATP. The phosphorylated peptide was captured on a P 81 phosphocellulose filter (paper filter or embedded in microtiter plate) washed and counted by scintillation methods.
The peptide substrates used in the assay are MBP, peptide substrate ([…]), or synthetic Myc substrate, ([…]•5 TFA. The recombinant enzymes used were prepared as GST fusion proteins of human ERK 2 and human MEK 1. Inhibitor samples were prepared as 10X stocks in 10% DMSO and an appropriate aliquot was used to deliver either 10 ug/ml for a single point screening dose or 100, 10, 1, and 0.1 uM final concentration for a dose response curve. Final DMSO concentrations were less than or equal to 1%.
The reaction was run as follows in 50 mM Tris kinase buffer, pH 7.4 in a reaction volume of 50 ul. The appropriate volume of kinase buffer and inhibitor sample was added to the tube. Appropriate dilution of enzyme was delivered to give 2-5 ug recombinant MAPK (Erk ) per tube. The inhibitor was incubated with MAPK (Erk) for 30 min at 0 deg. C. Recombinant Mek (MAPKK) ( 0.5-2.5 ug) or fully activated Mek (0.05-0.1 units) was added to activate the Erk and incubated for 30 min at 30° C. Then substrate and gamma ^33P ATP was were added to give a final concentration of 0.5- 1 mM MBPP or 250-500 uM Myc; 0.2-0.5 uCi gamma P 33 ATP/tube; 50 µM ATP final concentration. Samples were incubated at 30°C for 30 minutes and the reaction was stopped by adding 25 µl of ice cold 10 %TCA .After samples were chilled on ice for 30 min, 20 µl of sample was transferred onto P 81 phosphocellulose filter paper or appropriate MTP with embedded P 81 filter. Filter papers or MTP were washed 2 times with a large volume of 1% acetic acid, then 2 times with water. The filters or MTP were briefly air dried before addition of scintillant and samples were counted in the appropriate scintillation counter set up for reading ^33P isotope. Samples included a positive control (activated enzyme plus substrate); a no enzyme control; a no substrate control; samples with different concentrations of putative inhibitor; and samples with reference inhibitors (other active compounds or non-specific inhibitors such as staurosporine or K252 B).
The raw data was captured as cpm. Sample replicates were averaged and corrected for background count. Mean cpm data was tabulated by group and % inhibition by a test compound was calculated as (corrected cpm control- corrected. cpm sample/control) X 100 = % inhibition. […] The results obtained for representative compounds of this invention are listed in TABLE 2 where there may be separate entries for the same compound; this is an indication that the compound was evaluated more than one time.

[2] = target: Epithelial Cell Kinase (ECK) (Homo sapiens, UniProt P29317); test: Inhibition of Epithelial Cell Kinase (ECK) tyrosine kinase activity; type: biochemical
Experimental: In this standard pharmacological test procedure, a biotinylated peptide substrate is first immobilized on neutravidin-coated microtiter plates. The test drug, the Epithelial Cell Kinase (ECK), Mg^++, sodium vanadate (a protein tyrosine phosphatase inhibitor), and an appropriate buffer to maintain pH (7.2) are then added to the immobilized substrate-containing microtiter wells. ATP is then added to initiate phosphorylation. After incubation, the assay plates are washed with a suitable buffer leaving behind phosphorylated peptide which is exposed to horse radish peroxidase (HRP)-conjugated anti-phosphotyrosine monoclonal antibody. The antibody-treated plates are washed again and the HRP activity in individual wells is quantified as a reflection of degree of substrate phosphorylation. […] Multiple entries for a given compound indication it was tested multiple times.

erbB2 = erbB2 (Homo sapiens, UniProt P04626); test: erbB2 inhibition at a single concentration; type: biochemical; details: read-out: erbB2 % Inh 2 µg/mL
SKBR3 = test: Inhibition of Cancer Cell Growth as Measured by Cell Number; type: cell-based, Human; details: Homo sapiens, SK-BR-3; 48 hours exposure, Sulforhodamine B
Experimental: (§1) Inhibition of Cancer Cell Growth as Measured bv Cell Number
(§2) Human tumor cell lines were plated in 96-well plates (250 µl/well, 1-6 x 10^4 cells/ml) in RPMI 1640 medium, containing 5% FBS (Fetal Bovine Serum). […] After 48 hours exposure to test compounds, cells were fixed with trichloroacetic acid, and stained with Sulforhodamine B. After washing with trichloroacetic acid, bound dye was solubilized in 10 mM Tris base and optical density was determined using plate reader. Under conditions of the assay the optical density is proportional to the number of cells in the well. […] The test procedure is described in details by Philip Skehan et. al, J.Natl. Canc. Inst., 82, 1107-1112 (1990). […] Information about some of the cell lines used in these test procedures is available from the American Type Tissue Collection: Cell Lines and Hybridomas, 1994 Reference Guide, 8th Edition.

MDAMB435 = test: as above; type: cell-based, Human; details: Homo sapiens, MDA-MB-435; 48 hours exposure, Sulforhodamine B
Experimental: as §1, §2

A431 = test: as above; type: cell-based, Human; details: Homo sapiens, A-431; 48 hours exposure, Sulforhodamine B
Experimental: as §1, §2

SW620 = test: as above; type: cell-based, Human; details: Homo sapiens, SW-620; 48 hours exposure, Sulforhodamine B
Experimental: as §1, §2

[3] = coupled MEK 1 / ERK2; separate entries = separate tests; read-out: Mek and Erk

T1 sequence (P00533 669-1210): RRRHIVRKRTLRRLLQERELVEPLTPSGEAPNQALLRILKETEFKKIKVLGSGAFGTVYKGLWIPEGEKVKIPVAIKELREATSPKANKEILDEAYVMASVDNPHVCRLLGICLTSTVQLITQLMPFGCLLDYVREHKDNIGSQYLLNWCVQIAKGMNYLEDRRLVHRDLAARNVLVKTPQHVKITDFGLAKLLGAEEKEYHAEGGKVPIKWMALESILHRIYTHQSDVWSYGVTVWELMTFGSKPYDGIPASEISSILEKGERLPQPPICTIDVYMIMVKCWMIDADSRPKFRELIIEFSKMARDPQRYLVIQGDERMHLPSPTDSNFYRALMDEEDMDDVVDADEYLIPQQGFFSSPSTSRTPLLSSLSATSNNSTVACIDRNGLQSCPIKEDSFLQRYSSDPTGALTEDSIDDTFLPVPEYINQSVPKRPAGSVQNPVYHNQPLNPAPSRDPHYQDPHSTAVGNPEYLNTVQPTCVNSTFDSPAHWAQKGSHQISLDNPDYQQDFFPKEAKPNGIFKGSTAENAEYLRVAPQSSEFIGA
Mek and Erk, sequence (Q02750 whole entry): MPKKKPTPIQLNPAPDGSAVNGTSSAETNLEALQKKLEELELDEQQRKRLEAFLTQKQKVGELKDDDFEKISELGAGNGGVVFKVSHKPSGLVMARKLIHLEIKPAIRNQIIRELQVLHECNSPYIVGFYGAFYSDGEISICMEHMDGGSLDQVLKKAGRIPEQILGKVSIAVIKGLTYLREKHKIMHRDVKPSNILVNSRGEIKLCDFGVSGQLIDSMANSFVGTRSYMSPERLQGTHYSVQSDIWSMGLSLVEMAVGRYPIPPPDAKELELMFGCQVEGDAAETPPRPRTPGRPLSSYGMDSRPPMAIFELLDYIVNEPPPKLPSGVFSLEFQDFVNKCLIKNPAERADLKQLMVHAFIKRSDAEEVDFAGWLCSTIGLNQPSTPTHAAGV
Mek and Erk, sequence (P28482 2-360): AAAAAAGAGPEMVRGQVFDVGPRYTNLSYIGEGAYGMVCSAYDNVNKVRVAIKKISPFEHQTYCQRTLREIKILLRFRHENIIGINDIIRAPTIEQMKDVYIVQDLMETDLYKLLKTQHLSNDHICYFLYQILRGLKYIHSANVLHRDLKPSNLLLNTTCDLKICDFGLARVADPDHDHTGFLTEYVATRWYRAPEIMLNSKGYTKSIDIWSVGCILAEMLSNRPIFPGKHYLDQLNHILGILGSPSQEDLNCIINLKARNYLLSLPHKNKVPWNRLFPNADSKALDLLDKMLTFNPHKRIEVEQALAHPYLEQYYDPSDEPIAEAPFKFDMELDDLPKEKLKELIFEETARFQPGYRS
Epithelial Cell Kinase (ECK), sequence (P29317 24-976, species assumed): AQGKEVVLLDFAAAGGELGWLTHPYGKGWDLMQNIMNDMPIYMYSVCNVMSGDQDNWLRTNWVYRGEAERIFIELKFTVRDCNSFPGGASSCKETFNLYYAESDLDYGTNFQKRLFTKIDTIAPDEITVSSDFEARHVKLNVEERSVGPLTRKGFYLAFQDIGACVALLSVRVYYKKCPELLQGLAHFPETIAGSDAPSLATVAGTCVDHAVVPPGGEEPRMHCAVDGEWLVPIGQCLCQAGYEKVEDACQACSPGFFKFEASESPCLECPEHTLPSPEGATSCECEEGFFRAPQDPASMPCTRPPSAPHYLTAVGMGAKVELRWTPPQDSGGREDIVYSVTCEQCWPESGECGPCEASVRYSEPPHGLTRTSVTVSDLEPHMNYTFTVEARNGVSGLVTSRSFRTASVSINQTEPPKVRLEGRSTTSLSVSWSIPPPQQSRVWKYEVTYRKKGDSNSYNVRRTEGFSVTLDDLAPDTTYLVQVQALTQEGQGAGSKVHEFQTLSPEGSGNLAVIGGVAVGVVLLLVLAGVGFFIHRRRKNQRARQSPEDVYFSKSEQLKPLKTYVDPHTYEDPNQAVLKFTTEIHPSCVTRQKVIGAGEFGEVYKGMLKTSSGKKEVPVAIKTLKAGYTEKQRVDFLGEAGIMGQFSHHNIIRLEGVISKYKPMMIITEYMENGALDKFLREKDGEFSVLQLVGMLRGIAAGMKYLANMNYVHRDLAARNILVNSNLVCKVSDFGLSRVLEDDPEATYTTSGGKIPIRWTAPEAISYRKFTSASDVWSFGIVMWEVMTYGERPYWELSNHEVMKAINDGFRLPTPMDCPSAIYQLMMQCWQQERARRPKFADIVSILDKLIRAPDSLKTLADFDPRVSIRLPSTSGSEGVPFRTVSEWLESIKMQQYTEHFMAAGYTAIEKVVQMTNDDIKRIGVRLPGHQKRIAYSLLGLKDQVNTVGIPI
erbB2, sequence (P04626 23-1255): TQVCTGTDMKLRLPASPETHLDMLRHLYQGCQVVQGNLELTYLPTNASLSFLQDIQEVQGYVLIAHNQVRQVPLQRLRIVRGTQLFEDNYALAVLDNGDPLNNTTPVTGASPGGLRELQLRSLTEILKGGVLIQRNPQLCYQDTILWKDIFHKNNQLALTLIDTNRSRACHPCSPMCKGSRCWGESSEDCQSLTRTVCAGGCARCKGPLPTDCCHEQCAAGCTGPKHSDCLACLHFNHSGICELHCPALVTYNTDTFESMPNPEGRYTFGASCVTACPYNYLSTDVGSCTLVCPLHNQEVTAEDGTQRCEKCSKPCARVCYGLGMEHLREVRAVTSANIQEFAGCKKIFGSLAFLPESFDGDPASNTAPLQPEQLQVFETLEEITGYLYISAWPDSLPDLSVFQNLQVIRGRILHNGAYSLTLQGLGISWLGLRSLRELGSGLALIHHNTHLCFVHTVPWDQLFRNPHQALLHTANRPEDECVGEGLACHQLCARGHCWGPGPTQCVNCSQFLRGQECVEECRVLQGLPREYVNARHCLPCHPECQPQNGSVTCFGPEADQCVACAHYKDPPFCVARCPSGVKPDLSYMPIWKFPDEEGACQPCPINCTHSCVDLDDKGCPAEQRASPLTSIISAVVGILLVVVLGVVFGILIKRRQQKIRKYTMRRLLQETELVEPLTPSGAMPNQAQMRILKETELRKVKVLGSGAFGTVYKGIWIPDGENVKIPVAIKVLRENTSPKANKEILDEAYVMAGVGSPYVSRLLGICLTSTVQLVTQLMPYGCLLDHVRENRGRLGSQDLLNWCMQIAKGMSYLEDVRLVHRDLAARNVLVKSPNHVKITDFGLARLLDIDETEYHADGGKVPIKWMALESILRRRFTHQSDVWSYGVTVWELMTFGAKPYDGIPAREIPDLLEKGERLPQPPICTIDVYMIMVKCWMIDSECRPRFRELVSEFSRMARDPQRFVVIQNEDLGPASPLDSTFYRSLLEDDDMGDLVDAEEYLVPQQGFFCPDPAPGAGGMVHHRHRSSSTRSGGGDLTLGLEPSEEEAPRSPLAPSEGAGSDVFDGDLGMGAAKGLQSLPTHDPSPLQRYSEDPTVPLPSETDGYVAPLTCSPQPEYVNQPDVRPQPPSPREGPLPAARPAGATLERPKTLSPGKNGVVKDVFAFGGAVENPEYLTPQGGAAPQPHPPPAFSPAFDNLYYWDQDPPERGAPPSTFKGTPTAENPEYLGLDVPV

IC50 [1] [nM]	IC50 (Mek and Erk; [3]) [nM]	inhibition at 2 µg/mL (erbB2) [%]	IC50 (SKBR3) [µg/mL]	IC50 (MDAMB435) [µg/mL]	IC50 (A431) [µg/mL]	IC50 (SW620) [µg/mL]	Structure (SMILES)	further results
6	> 100000	96	0.8 (≈ 1.67 µM)	3.5 (≈ 7.3 µM)	0.9 (≈ 1.88 µM)	0.4 (≈ 0.834 µM)	COCCOCC#CC(=O)Nc1ccc2ncc(C#N)c(Nc3cccc(Br)c3)c2c1 [Example 72, 4-(2-Methoxy-ethoxy)-but-2-ynoic acid [4-(3-bromo-phenylamino)-3-cyano-quinolin-6-yl]-amide]	IC50 [2]: > 41700 nM
0.36			0.01 (≈ 0.0193 µM)	0.3 (≈ 0.579 µM)	0.04 (≈ 0.0772 µM)	0.1 (≈ 0.193 µM)	COC[C@@H]1CCCN1CC#CC(=O)Nc1ccc2ncc(C#N)c(Nc3cccc(Br)c3)c2c1 [Example 79, 4-((2S)-2-Methoxymethylpyrrolidin-1-yl)but-2-ynoic Acid [4-(3-bromophenylamino)-3-cyanquinolin-6-yl]amide]	
5							COc1cc2ncc(C#N)c(Nc3ccc(F)c(Cl)c3)c2cc1NC(=O)C=CC[n+]1csc(C)c1 [Example 95, 3-{3-[4-(3-Chloro-4-fluoro-phenylamino)-3-cyano-7-methoxy-quinolin-6-ylcarbamoyl]-allyl}-5-methyl-thiazol-3-ium bromide]	
100							COc1cc2ncc(C#N)c(Nc3ccc(F)c(Cl)c3)c2cc1NC(=O)C=CC[n+]1cscc1C [Example 96, 3-{3-[4-(3-Chloro-4-fluoro-phenylamino)-3-cyano-7-methoxy-quinolin-6-ylcarbamoyl]-allyl}-4-methyl-thiazol-3-ium bromide]	
5							COc1cc2ncc(C#N)c(Nc3ccc(F)c(Cl)c3)c2cc1NC(=O)C=CCN(CC(C)O)CC(C)O (centres unmarked) [Example 115, 4-[Bis-(2-hydroxy-propyl)-amino]-but-2-enoic acid [4-(3-chloro-4-fluoro-phenylamino)-3-cyano-7-methoxy-quinolin-6-yl]-amide]	
8							C=CCN(CC=C)CC=CC(=O)Nc1cc2c(Nc3ccc(F)c(Cl)c3)c(C#N)cnc2cc1OC [Example 103, 4-Diallylamino-but-2-enoic acid [4-(3-chloro-4-fluoro-phenylamino)-3cyano-7-methoxy-quinolin-6-yl]-amide]	
0.05							COc1cc2ncc(C#N)c(Nc3ccc(F)c(Cl)c3)c2cc1NC(=O)C=CCN1CCC(O)(O)CC1 [Example 119, 4-(4,4-Dihydroxy-piperidin-1-yl)-but-2-enoic acid [4-(3-chloro-4-fluoro-phenylamino)-3-cyano-7-methoxy-quinolin-6-yl]-amide]	
7							COc1cc2ncc(C#N)c(Nc3ccc(F)c(Cl)c3)c2cc1NC(=O)C=CCN1CCOCCOCCOCC1 [Example 109, 4-(1,4,7-Trioxa-10-aza-cyclododec-10-yl)-but-2-enoic acid [4-(3-chloro-4-fluoro-phenylamino)-3-cyano-7-methoxy-quinolin-6-yl]-amide]	
500							COc1cc2ncc(C#N)c(Nc3ccc(F)c(Cl)c3)c2cc1NC(=O)C=CCN1CCSCC1 [Example 107, 4-Thiomorpholin-4-yl-but-2-enoic acid [4-(3-chloro-4-fluoro-phenylamino)-3-cyano-7-methoxy-quinolin-6-yl]-amide]	
13							COc1cc2ncc(C#N)c(Nc3ccc(F)c(Cl)c3)c2cc1NC(=O)C=CCN(CCO)CCO [Example 106, 4-[Bis-(2-hydroxy-ethyl)-amino]-but-2-enoic acid [4-(3-chloro-4-fluoro-phenylamino)-3-cyano-7-methoxy-quinolin-6-yl]-amide]	
10	> 100000	96	0.031 (≈ 0.063 µM)	0.284 (≈ 0.577 µM)	0.05 (≈ 0.102 µM)	0.239 (≈ 0.485 µM)	COCCN(C)CC#CC(=O)Nc1ccc2ncc(C#N)c(Nc3cccc(Br)c3)c2c1 [Example 76, N-[4-[(3-Bromophenyl)amino]-3-cyano-6-quinolinyl]-4-(N-methoxyethyl-N-methylamino)-2-butynamide]	
6	> 100000	105	0.02 (≈ 0.0422 µM)	0.1 (≈ 0.211 µM)	0.03 (≈ 0.0632 µM)	0.1 (≈ 0.211 µM)	C=CCN(C)CC#CC(=O)Nc1ccc2ncc(C#N)c(Nc3cccc(Br)c3)c2c1 [Example 77, N-[4-[(3-Bromophenyl)amino]-3-cyano-6-quinolinyl]-4-(N-allyl-N-methylamino)-2-butynamide]	IC50 ([2]; IC50 = concentration that inhibits substrate phosphorylation by 50%): 42200 nM
26							COc1cc2ncc(C#N)c(Nc3ccc(F)c(Cl)c3)c2cc1NC(=O)C=CCN1CCN(CCO)CC1 [Example 108, 4-[4-(2-Hydroxy-ethyl)-piperazin-1-yl]-but-2-enoic acid [4-(3-chloro-4-fluoro-phenylamino)-3-cyano-7-methoxy-quinolin-6-yl]-amide]	
	> 100000	95					COCOCC#CC(=O)Nc1ccc2ncc(C#N)c(Nc3cccc(Br)c3)c2c1 [Example 74, 4-Methoxymethoxy-but-2-ynoic acid [4-(3-bromo-phenylamino)-3-cyano-quinolin-6-yl]-amide]	IC50 [2]: > 43000 nM

Structure (SMILES)	IC50 [1] [nM]	IC50 (Mek and Erk; [3]) [nM]	inhibition at 2 µg/mL (erbB2) [%]	IC50 (SKBR3) [µg/mL]	IC50 (MDAMB435) [µg/mL]	IC50 (A431) [µg/mL]	IC50 (SW620) [µg/mL]	further results
COCCN(CC#CC(=O)Nc1ccc2ncc(C#N)c(Nc3cccc(Br)c3)c2c1)CCOC [Example 75, N-[4-[(3-Bromophenyl)amino]-3-cyano-6-quinolinyl]-4-(bis-(2-methoxyethyl)amino)-2-butynamide]	0.4	100000		0.04 (≈ 0.0746 µM)	0.2 (≈ 0.373 µM)	0.1 (≈ 0.186 µM)	0.5 (≈ 0.932 µM)	
CCOc1c(Nc2ccc3ncc(C#N)c(Nc4cccc(Br)c4)c3c2)c(=O)c1=O [Example 85, 4-(3-Bromo-phenylamino)-6-(2-ethoxy-3,4-dioxo-cyclobut-1-enylamino)-quinoline-3-carbonitrile]			87	1.74 (≈ 3.76 µM)	27.6 (≈ 59.6 µM)	4.91 (≈ 10.6 µM)	18 (≈ 38.8 µM)	IC50 (Mek and Erk; read-out: Mek and Erk; coupled MEK 1 / ERK2; separate entries = separate tests): 1800 nM
CN1CCC=C(C(=O)Nc2ccc3ncc(C#N)c(Nc4cccc(Br)c4)c3c2)C1 [Example 78, 1-Methyl-1,2,5,6-tetrahydro-pyridine-3-carboxylic acid [4-(3-bromo-phenylamino)-3-cyano-quinolin-6-yl]-amide]		40000	53	1.5 (≈ 3.23 µM)	3.19 (≈ 6.91 µM)	0.369 (≈ 0.798 µM)	> 5	IC50 [2]: > 21300 nM

Reference: patent EP2253620B1, “SUBSTITUTED 3-CYANOQUINOLINES AS PROTEIN TYROSINE KINASES INHIBITORS” (Wyeth Holdings LLC, priority 1998, dated 2000)
